Test results published in publication PMC3566143, “Pantothenamides Are Potent, On-Target Inhibitors of Plasmodium falciparum Growth When Serum Pantetheinase Is Inactivated” (PLoS ONE, 2013).

Assays:
P. falciparum PanK = experiment: [14C]pantothenate phosphorylation assay with P. falciparum lysate; format: biochemical, Plasmodium falciparum; conditions: 100 µM pantothenamide, 0.2 µM [14C]pantothenate, 10 min
Method: To assess the effect of the pantothenamides on pantothenate phosphorylation by P. falciparum PanK, the phosphorylation of [^14C]pantothenate by P. falciparum lysates was measured in the presence and absence of a single concentration of each pantothenamide. P. falciparum lysate was prepared from trophozoite stage parasites “isolated” from their host erythrocyte by treatment with 0.05% (w/v) saponin (essentially as described by Saliba et al.), and washed (five times) in HEPES-buffered saline (125 mM NaCl, 5 mM KCl, 20 mM D-glucose, 25 mM HEPES, 1 mM MgCl2, pH 7.1). Lysates were prepared as described by van Schalkwyk et al., except that 10 mM potassium phosphate, pH 7.4 (rather than 10 mM Tris, pH 7.4), was used to lyse the cells. Aliquots of lysate were stored at −20°C. The concentration of cell lysates was determined from cell counts made using an improved Neubauer hemocytometer.
[^14C]Pantothenate phosphorylation was assayed using the Somogyi reagent essentially as described by Saliba et al., except that pantothenate phosphorylation was terminated by heat denaturation (rather than acid denaturation) of the protein in reaction aliquots. Briefly, P. falciparum lysate was added to solutions (at 37°C) of 50 mM Tris, 5 mM ATP, 5 mM MgCl2, at pH 7.4, containing [^14C]pantothenate (at a final concentration of 0.01 µCi/mL, or 0.2 µM), and a pantothenamide (at a final concentration of 100 µM) or an equivalent volume of solvent. Typically, lysate prepared from 5.4–6.5×10^7 parasites was present in each mL of reaction solution. Zero phosphorylation control reactions were prepared by adding a corresponding volume of 10 mM potassium phosphate instead of parasite lysate. Following a ten minute incubation at 37°C (a period during which pantothenate phosphorylation increased linearly with time in the absence of inhibitors) 200 µL aliquots of the [^14C]pantothenate phosphorylation reactions were transferred in duplicate to microcentrifuge tubes, and immediately incubated at 95°C for 10 min to terminate phosphorylation. Terminated reaction samples were centrifuged at 15 800×g for 10 min to pellet the denatured protein, before two aliquots of each supernatant (typically 80 µL) were transferred to new microcentrifuge tubes. To one aliquot, 500 µL Somogyi reagent was added, and to the other, 500 µL water was added. The samples were processed for determination of phosphorylated [^14C]pantothenate as described previously.

Albumax II = experiment: fluorescamine-based pantothenamide hydrolysis assay with Albumax II; format: in vitro ADME, bovine; conditions: 200 µM compound, Albumax II 0.6% (w/v), 37°C
Method: (§1) Hydrolysis of compound 12 to pantothenate and isobutylamine was measured using a modification of a fluorescence-based assay described previously for the measurement of N-acetyl-1-D-myo-inosityl-2-amino-2-deoxy-α-D-glucopyranoside deacetylase activity, [31]. The assay utilizes fluorescamine (4-phenylspiro-[furan-2(3H),1-phthalan]-3,3′-dione; a non-fluorescent molecule that reacts with primary amines to form a fluorescent product) for the detection of primary amines. Briefly, recombinant human pantetheinase (at a final concentration of 100 ng/mL), Albumax II (at a final concentration 0.6%, w/v), or an equivalent volume of water, was added to solutions (at 37°C) of 100 mM potassium phosphate, pH 7.5, 0.5 mM dithiothreitol, 0.01% (w/v) bovine serum albumin, 0.1% (v/v) DMSO, with or without pantothenamide (at a final concentration of 200 µM). At the appropriate time points, aliquots (30 µL) of the reaction mixtures were removed in duplicate and mixed with 10 µL 20% (v/v) trichloroacetic acid to terminate the reaction. […] The plate was then incubated at 37°C for 10 min before fluorescence was measured using a FLUOstar OPTIMA multidetection microplate reader from BMG LABTECH with excitation and emission wavelengths of 390 and 485 nm, respectively. The fluorescence detected was converted to the corresponding isobutylamine concentration using an isobutylamine standard curve. […]

[1] = molecular target: T1, recombinant human pantetheinase (Vanin-1) (Homo sapiens, UniProt O95497); experiment: fluorescamine-based pantothenamide hydrolysis assay with recombinant pantetheinase; format: in vitro ADME; conditions: 200 µM compound, same conditions with water instead of enzyme
T1 construct: purchased Novoprotein Scientific Inc. (Short Hills, New Jersey, USA)
T1 sequence (O95497 22-513): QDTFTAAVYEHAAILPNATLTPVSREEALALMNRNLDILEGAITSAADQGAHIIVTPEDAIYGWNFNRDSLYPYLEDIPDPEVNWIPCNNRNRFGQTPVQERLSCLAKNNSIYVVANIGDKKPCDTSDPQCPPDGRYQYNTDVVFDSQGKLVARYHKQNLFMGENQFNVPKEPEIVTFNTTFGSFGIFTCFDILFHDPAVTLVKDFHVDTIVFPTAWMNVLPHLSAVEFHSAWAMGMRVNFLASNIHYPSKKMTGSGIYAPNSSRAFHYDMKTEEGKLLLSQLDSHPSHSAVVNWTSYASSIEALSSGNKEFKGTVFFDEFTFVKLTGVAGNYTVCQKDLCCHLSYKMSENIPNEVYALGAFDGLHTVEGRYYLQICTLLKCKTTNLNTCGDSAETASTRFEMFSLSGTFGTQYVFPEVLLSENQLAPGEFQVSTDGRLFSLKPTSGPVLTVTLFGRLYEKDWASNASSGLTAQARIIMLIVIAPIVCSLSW
Method: as §1

## CC(C)CNC(=O)CCNC(=O)[C@H](O)C(C)(C)CO [Compound 12]
P. falciparum PanK
  Inhibition of pantothenate phosphorylation at 100 μM: 95 ± 5%
Albumax II
  time to completion of hydrolysis: ≤ 24 h
Albumax II; 6 h
  fraction of pantothenamide hydrolyzed during 6 h incubation: over one third
[1]
  hydrolysis in the absence of pantetheinase: not observed
